According to patent US12600732B2, “Bifunctional compounds for degrading BTK via ubiquitin proteosome pathway” (NURIX THERAPEUTICS, INC., priority 2019, dated 2026):
“And” between values parts separate entries of the source, which are not always exact repeats. Equal values may be shown once. Read-outs that look alike come from different tables or passages of the source.

How the values were obtained:
[1] = PK data for BTK CTMs (in vivo plasma concentrations); conditions: for Vd: read-out: Volume of Distribution
Excerpt: The present example evaluates in vivo plasma concentrations of BTK CTMs to develop PK-PD-efficacy relationship and predict human exposure.

[2] = Compound plasma exposure in mouse (CD-1), daily oral dosing, same table as the cyno DRF study; assay type: in vivo; conditions: CD-1, mouse
[3] = test system: TMD8 BTK C481S tumor cells; experiment: TMD8 BTK C481S xenograft efficacy study; assay type: in vivo, mouse; conditions: PO, 23 days of dosing
Protocol: […] Tumor growth inhibition (% TGI) were calculated on the final day of measurement using the equation [1−(T−T0/C−T0)]×100, where T and C represent the mean size of tumors in the treated (T) and control (C) groups, and T0 refers to the tumor size at randomization.
This example examines the activity of various BTK CTMs in relevant disease models, including the WT and C481S TMD8 model, which models B cell malignancies with/without inhibitor-driven BTK mutations at C481.

[4] = test system: BTK; experiment: Non-human primate (cyno) DRF PD, BTK remaining in B cells; assay type: in vivo; conditions: blood, 24 h after previous dose
Protocol: (§1) This example evaluates potency and tolerability of BTK CTMs following multiple, consecutive days of dosing and examines potency of compounds for BTK and Aiolos degradation. The data in the table below is from a study in which animals were dosed daily with the designated oral dose. Analysis for BTK and Aiolos levels was performed twenty-four hours following the previous dose.

[5] = test system: Aiolos; experiment: Non-human primate (cyno) DRF PD, Aiolos remaining in T cells; assay type: in vivo; conditions: blood, 24 h after previous dose
Protocol: as §1

[6] = molecular target: BTK (Homo sapiens, UniProt Q06187); experiment: Cellular BTK degradation assay (Total BTK HTRF) in TMD8 cells; assay type: cell-based; set-up: endogenous in cells; host or cells: TMD8; conditions: treatment time 24 h
Chain of BTK (Homo sapiens, UniProt Q06187) (Q06187 whole entry): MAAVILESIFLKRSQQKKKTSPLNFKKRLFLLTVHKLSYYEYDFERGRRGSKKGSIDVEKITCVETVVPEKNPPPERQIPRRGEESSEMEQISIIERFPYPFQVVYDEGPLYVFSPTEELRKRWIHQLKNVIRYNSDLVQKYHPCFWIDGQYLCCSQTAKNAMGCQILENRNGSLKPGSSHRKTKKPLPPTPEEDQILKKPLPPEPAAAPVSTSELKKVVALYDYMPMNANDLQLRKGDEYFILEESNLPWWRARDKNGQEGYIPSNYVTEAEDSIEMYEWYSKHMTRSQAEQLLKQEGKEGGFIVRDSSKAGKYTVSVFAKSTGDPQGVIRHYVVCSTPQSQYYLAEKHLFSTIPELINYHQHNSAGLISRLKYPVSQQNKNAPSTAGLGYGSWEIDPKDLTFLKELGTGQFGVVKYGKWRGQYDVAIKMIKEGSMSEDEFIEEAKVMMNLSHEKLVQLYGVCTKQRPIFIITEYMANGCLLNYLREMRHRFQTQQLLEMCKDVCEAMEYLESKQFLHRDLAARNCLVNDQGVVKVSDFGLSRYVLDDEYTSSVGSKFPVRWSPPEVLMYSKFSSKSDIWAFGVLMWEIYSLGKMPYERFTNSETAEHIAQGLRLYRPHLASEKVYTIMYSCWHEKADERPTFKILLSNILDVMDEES
Protocol: Cellular BTK Degradation Assay
In Vitro Cellular Screening to Determine Potency as Measured by DC50 Values after Four Hour Incubation
BTK levels were determined using Cisbio Total-BTK HTRF (Homologous Time-Resolved Fluorescence) kit (63ADK064PEG) according to the manufacturer's protocol. Briefly, cells were incubated in 1× supplied lysis buffer for 30 minutes. In an opaque white low volume 96-well plate (Cisbio, 66PL96005), cell lysate was combined with two different specific BTK antibodies, one conjugated with Eu^3+-Cryptate FRET donor and one conjugated with d2 FRET acceptor. Assay controls include wells containing cell lysate with only the Eu^3+-Cryptate FRET donor antibody and wells containing both HTRF antibodies and lysis buffer without cells or control lysate provided by Cisbio. HTRF ratio was calculated as (acceptor signal at 665 nm/donor signal at 620 nm)×10^4. Background HTRF levels were determined from the control well containing the donor, but no acceptor, antibody. Background HTRF levels were subtracted from all samples. Readouts were reported as HTRF levels relative to HTRF levels of DMSO-treated cells. Four-parameter non-linear regressions were performed in GraphPad Prism 7.02 to obtain DC50 values.
Cellular BTK degradation was measured as above for four hours in TMD8 cells for two diastereomers of compound 130. DC50 and EC50 values are the concentration at which the response is halfway between the top and bottom of the fitted non-linear regression curve.
The present example evaluates whether potency of BTK CTMs shifts with longer timepoints. DC50 values are typically calculated with a 4-hour timepoint.

[7] = test system: CRBN neo-substrates; experiment: CRBN neo-substrate levels / IMiD activity in MOLT4 and TMD8 cells (FIGS. 10-12); assay type: cell-based; conditions: for effects on CRBN neo-substrate levels: after twenty-four hours, TMD8 and/or MOLT4 cells, FIGS. 10A and 10B
Excerpt: FIGS. 10A and 10B provide effects of compounds 73, 72, 121, and 44, and control compounds, on neo-substrate and ITK or BTK levels after twenty-four hours in MOLT4 cells (FIG. 10A) and TMD8 cells (FIG. 10B).
FIGS. 11A and 11B provide effects of compounds 44, 72, and 149, and control compounds, on CRBN neo-substrate and ITK levels in MOLT4 cells (FIG. 11A) and TMD8 cells (FIG. 11B).
FIG. 12 provides effects of compounds 130, 149, and 44 on ITK levels and IMiD activity.

[8] = 30 mg/kg, 30 mg/kg PO, 1 day of dosing
[9] = 30 mg/kg, 30 mg/kg PO, 14 days of dosing
[10] = 100 mg/kg, 100 mg/kg PO, 1 day of dosing
[11] = 100 mg/kg, 100 mg/kg PO, 14 days of dosing
[12] = 300 mg/kg, 300 mg/kg PO, 1 day of dosing
[13] = 300 mg/kg, 300 mg/kg PO, 14 days of dosing
[14] = 10 mg/kg PO daily, 1 day of dosing
[15] = 10 mg/kg PO daily, 14 days of dosing
[16] = 30 mg/kg PO daily, 1 day of dosing
[17] = 30 mg/kg PO daily, 14 days of dosing
[18] = 100 mg/kg PO daily, 1 day of dosing
[19] = 100 mg/kg PO daily, 14 days of dosing
[20] = Rat Sprague-Dawley, 10 mg/kg PO

Question: Which AUC ([1]; Mouse Balb/c, 1 mg/kg IV) does the source give for CN1CCN([C@@H]2CCCN(c3cnc(C(N)=O)c(Nc4ccc(C5CCN(C[C@H]6CCN(c7ccc8c(c7)C(=O)N(C7CCC(=O)NC7=O)C8=O)C6)CC5)cc4)n3)C2)C1=O (some centres unmarked) [Compound 44] here?
Answer: 4.07 µM·h

Question: And the clearance ([1]; Mouse Balb/c, 1 mg/kg IV)?
Answer: 5.1 mL/min/kg

Question: And the Vd ([1]; Mouse Balb/c, 1 mg/kg IV)?
Answer: 0.69 L/kg

Question: And the AUC ([1]; Mouse Balb/c, 10 mg/kg PO)?
Answer: 4 µM·h

Question: What about the bioavailability ([1]; Mouse Balb/c, 10 mg/kg PO) of the same compound?
Answer: 10%

Question: And the AUC [2, 8]?
Answer: 2.32 µM·h

Question: What about the Cmax [2, 8] of the same compound?
Answer: 230 nM

Question: And the AUC [2, 9]?
Answer: 2.22 µM·h

Question: What about the Cmax [2, 9] of the same compound?
Answer: 250 nM

Question: What about the AUC [2, 10] of the same compound?
Answer: 4.15 µM·h

Question: What about the Cmax [2, 10] of the same compound?
Answer: 400 nM

Question: And the AUC [2, 11]?
Answer: 8.07 µM·h

Question: And the Cmax [2, 11]?
Answer: 590 nM

Question: What about the AUC [2, 12] of the same compound?
Answer: 9.53 µM·h

Question: What about the Cmax [2, 12] of the same compound?
Answer: 740 nM

Question: And the AUC [2, 13]?
Answer: 12.8 µM·h

Question: What about the Cmax [2, 13] of the same compound?
Answer: 940 nM

Question: What about the “Tumor Growth Inhibition (relative to vehicle)” value ([3]; 5 mg/kg, BID) of the same compound?
Answer: 65%

Question: What about the “Tumor Growth Inhibition (relative to vehicle)” value ([3]; 15 mg/kg, BID) of the same compound?
Answer: 62%

Question: And the “Tumor Growth Inhibition (relative to vehicle)” value ([3]; 30 mg/kg, BID)?
Answer: 70% and 78%

Question: What about the “Tumor Growth Inhibition (relative to vehicle)” value ([3]; 30 mg/kg, QD) of the same compound?
Answer: 48% and 51% and 36%

Question: What about the “Tumor Growth Inhibition (relative to vehicle)” value ([3]; 60 mg/kg, QD) of the same compound?
Answer: 70%

Question: And the “% BTK Remaining in B cells” value [4, 14]?
Answer: 35%

Question: And the “% BTK Remaining in B cells” value [4, 15]?
Answer: 16%

Question: What about the “% BTK Remaining in B cells” value [4, 16] of the same compound?
Answer: 31%

Question: And the “% BTK Remaining in B cells” value [4, 17]?
Answer: 10%

Question: What about the “% BTK Remaining in B cells” value [4, 18] of the same compound?
Answer: 14%

Question: What about the “% BTK Remaining in B cells” value [4, 19] of the same compound?
Answer: 6%

Question: And the “% Aiolos Remaining in T cells” value [5, 14]?
Answer: 96%

Question: What about the “% Aiolos Remaining in T cells” value [5, 15] of the same compound?
Answer: 71%

Question: And the “% Aiolos Remaining in T cells” value [5, 16]?
Answer: 99%

Question: What about the “% Aiolos Remaining in T cells” value [5, 17] of the same compound?
Answer: 69%

Question: And the “% Aiolos Remaining in T cells” value [5, 18]?
Answer: 96%

Question: What about the “% Aiolos Remaining in T cells” value [5, 19] of the same compound?
Answer: 63%

Question: And the DC50 [6]?
Answer: 0.36 nM

Question: And the “effect on CRBN neo-substrate levels in cells” value ([7]; MOLT4 and TMD8 cells, FIGS. 11A and 11B)?
Answer: some effect

Question: What about the “effects on CRBN neo-substrate levels” value [7] of the same compound?
Answer: some effects

Question: Which AUC ([1]; Mouse Balb/c, 1 mg/kg IV) does the source give for CN1CCN([C@@H]2CCCN(c3cnc(C(N)=O)c(Nc4ccc(C5CCN(CC6CCN(c7ccc(-c8nn(C9CCC(=O)NC9=O)c(=O)n8C)cc7)CC6)CC5)cc4)n3)C2)C1=O (some centres unmarked) [Compound 121] here?
Answer: 2.87 µM·h

Question: What about the clearance ([1]; Mouse Balb/c, 1 mg/kg IV) of the same compound?
Answer: 6.6 mL/min/kg

Question: And the Vd ([1]; Mouse Balb/c, 1 mg/kg IV)?
Answer: 0.77 L/kg

Question: What about the AUC ([1]; Mouse Balb/c, 30 mg/kg PO) of the same compound?
Answer: 2.22 µM·h

Question: And the bioavailability ([1]; Mouse Balb/c, 30 mg/kg PO)?
Answer: 11%

Question: And the AUC ([1]; Rat Sprague-Dawley, 1 mg/kg IV)?
Answer: 0.919 µM·h

Question: And the clearance ([1]; Rat Sprague-Dawley, 1 mg/kg IV)?
Answer: 20 mL/min/kg

Question: And the Vd ([1]; Rat Sprague-Dawley, 1 mg/kg IV)?
Answer: 3.12 L/kg

Question: And the AUC [1, 20]?
Answer: 0.083 µM·h

Question: What about the bioavailability [1, 20] of the same compound?
Answer: 1%

Question: And the AUC ([1]; Rat Sprague-Dawley, 30 mg/kg PO)?
Answer: 0.73 µM·h

Question: What about the DC50 [6] of the same compound?
Answer: 1 nM

Question: And the “effects on CRBN neo-substrate levels” value [7]?
Answer: minimal effects
